Legend:
[1] = biological target: Histone deacetylase 3 (Homo sapiens, UniProt O15379); assay: Inhibition of HDAC3 (unknown origin) using MAZ1600 and MAZ1675 as substrate assessed as fluorogenic release of 7-amino-4-methylcoumarin from substrate by optimized homogenous assay
[2] = biological target: Histone deacetylase 1 (Homo sapiens, UniProt Q13547); assay: Inhibition of HDAC1 (unknown origin) using MAZ1600 and MAZ1675 as substrate assessed as fluorogenic release of 7-amino-4-methylcoumarin from substrate by optimized homogenous assay
Sequence of Histone deacetylase 1 (Q13547 whole entry): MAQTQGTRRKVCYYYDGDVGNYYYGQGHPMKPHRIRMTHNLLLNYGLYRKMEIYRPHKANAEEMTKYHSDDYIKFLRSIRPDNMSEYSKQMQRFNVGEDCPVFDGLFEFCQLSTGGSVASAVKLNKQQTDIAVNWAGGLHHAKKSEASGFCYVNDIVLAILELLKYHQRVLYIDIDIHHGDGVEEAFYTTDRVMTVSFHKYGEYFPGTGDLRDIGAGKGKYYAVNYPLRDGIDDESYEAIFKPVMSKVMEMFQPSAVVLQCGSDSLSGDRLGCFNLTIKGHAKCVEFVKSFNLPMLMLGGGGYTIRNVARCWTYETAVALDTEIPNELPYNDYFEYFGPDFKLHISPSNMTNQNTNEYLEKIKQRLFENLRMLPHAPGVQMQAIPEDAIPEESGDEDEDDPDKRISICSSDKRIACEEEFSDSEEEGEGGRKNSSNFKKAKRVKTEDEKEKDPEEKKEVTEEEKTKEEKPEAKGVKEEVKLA

[3] = biological target: Histone deacetylase 2 (Homo sapiens, UniProt Q92769); assay: Inhibition of HDAC2 (unknown origin) using MAZ1600 and MAZ1675 as substrate assessed as fluorogenic release of 7-amino-4-methylcoumarin from substrate by optimized homogenous assay
Sequence of Histone deacetylase 2 (Q92769 whole entry): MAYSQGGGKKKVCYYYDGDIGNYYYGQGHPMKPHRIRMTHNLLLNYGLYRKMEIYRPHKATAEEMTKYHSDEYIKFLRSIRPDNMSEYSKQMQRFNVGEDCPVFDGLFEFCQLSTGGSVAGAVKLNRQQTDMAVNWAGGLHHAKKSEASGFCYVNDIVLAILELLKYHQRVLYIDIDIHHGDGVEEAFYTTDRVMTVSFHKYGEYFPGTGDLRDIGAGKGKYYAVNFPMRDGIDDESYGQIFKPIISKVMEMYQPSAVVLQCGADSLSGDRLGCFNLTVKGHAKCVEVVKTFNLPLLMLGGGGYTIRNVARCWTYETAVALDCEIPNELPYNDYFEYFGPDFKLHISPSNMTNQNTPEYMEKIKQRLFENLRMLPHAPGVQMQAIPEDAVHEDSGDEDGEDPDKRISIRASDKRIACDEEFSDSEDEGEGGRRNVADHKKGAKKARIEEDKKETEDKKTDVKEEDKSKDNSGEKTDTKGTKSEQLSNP

[4] = biological target: T1, Protein deacetylase HDAC6 (Homo sapiens, UniProt Q9UBN7); assay: Inhibition of HDAC6 (unknown origin) using MAZ1600 and MAZ1675 as substrate assessed as fluorogenic release of 7-amino-4-methylcoumarin from substrate by optimized homogenous assay
T1 sequence (Q9UBN7 whole entry): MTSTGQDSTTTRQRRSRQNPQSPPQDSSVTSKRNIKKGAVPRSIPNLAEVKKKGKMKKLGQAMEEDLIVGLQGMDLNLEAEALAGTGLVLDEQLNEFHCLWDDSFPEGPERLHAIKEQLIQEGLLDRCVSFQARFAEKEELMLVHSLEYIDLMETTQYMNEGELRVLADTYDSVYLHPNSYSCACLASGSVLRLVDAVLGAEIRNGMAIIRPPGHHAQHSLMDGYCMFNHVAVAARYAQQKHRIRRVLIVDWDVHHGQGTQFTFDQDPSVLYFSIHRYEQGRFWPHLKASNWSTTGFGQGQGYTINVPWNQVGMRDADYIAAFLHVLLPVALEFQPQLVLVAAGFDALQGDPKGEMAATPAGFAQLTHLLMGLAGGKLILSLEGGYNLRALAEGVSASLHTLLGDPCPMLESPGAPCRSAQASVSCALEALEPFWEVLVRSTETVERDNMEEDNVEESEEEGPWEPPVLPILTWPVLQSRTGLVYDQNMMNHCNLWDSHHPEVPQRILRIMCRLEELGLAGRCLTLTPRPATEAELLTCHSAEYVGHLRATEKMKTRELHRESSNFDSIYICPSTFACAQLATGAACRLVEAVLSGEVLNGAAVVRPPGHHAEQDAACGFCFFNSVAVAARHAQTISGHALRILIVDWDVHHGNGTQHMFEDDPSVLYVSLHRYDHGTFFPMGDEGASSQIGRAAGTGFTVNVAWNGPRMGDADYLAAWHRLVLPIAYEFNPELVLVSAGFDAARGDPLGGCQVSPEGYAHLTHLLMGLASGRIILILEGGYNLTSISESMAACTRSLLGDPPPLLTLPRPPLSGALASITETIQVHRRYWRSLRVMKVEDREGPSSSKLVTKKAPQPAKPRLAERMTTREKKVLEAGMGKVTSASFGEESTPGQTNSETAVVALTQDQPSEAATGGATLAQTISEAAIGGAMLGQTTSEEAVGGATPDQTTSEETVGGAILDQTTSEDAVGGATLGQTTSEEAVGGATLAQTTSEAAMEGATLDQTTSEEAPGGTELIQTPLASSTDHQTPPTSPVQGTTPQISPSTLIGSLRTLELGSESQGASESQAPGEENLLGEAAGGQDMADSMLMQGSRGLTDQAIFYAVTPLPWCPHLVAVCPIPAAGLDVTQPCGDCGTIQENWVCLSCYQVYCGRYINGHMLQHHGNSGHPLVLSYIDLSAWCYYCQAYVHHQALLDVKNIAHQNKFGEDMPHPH

[5] = Cytotoxicity against human MM1S cells after 48 hrs by ATPlite assay; type: functional, cell-based; settings: MM1.S
[6] = biological target: T2, Histone deacetylase 8 (Homo sapiens, UniProt Q9BY41); assay: Inhibition of HDAC8 (unknown origin) using MAZ1600 and MAZ1675 as substrate assessed as fluorogenic release of 7-amino-4-methylcoumarin from substrate by optimized homogenous assay
T2 sequence (Q9BY41 whole entry): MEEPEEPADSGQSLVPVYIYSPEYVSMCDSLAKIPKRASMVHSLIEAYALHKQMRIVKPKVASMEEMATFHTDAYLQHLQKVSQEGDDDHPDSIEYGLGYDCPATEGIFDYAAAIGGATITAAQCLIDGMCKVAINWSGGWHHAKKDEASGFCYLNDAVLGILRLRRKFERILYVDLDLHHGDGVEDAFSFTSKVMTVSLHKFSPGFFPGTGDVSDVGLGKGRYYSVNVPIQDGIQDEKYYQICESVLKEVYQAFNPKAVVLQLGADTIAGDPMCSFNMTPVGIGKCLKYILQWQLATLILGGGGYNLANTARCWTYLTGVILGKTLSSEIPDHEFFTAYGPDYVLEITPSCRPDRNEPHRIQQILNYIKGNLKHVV

[7] = biological target: T3, Histone deacetylase 7 (Homo sapiens, UniProt Q8WUI4); assay: Inhibition of HDAC7 (unknown origin) using MAZ1600 and MAZ1675 as substrate assessed as fluorogenic release of 7-amino-4-methylcoumarin from substrate by optimized homogenous assay
T3 sequence (Q8WUI4 whole entry): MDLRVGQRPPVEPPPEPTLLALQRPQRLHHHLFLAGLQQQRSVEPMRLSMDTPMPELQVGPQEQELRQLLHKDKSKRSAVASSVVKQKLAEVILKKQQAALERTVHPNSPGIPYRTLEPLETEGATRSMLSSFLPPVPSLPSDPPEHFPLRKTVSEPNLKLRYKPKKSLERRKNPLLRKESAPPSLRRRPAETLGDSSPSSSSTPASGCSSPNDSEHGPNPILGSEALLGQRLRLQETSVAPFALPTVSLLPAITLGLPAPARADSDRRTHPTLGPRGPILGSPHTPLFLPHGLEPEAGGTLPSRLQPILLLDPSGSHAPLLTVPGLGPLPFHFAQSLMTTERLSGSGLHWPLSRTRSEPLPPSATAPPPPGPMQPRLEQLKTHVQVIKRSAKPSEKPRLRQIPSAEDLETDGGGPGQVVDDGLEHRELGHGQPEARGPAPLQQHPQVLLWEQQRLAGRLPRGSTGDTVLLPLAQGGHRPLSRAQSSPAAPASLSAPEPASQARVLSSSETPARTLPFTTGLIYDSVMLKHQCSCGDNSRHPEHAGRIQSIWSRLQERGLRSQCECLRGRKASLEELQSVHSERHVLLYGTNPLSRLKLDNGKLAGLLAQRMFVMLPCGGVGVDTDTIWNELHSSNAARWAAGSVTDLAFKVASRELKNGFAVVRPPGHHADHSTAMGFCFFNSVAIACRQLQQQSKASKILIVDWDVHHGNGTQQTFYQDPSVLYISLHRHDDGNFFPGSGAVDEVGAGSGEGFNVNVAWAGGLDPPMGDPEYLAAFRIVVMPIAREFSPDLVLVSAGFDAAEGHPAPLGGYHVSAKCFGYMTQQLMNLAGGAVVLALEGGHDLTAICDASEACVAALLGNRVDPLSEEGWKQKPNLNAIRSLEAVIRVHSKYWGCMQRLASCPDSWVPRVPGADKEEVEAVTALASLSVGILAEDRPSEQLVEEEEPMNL

Sequence of Histone deacetylase 3 (O15379 whole entry): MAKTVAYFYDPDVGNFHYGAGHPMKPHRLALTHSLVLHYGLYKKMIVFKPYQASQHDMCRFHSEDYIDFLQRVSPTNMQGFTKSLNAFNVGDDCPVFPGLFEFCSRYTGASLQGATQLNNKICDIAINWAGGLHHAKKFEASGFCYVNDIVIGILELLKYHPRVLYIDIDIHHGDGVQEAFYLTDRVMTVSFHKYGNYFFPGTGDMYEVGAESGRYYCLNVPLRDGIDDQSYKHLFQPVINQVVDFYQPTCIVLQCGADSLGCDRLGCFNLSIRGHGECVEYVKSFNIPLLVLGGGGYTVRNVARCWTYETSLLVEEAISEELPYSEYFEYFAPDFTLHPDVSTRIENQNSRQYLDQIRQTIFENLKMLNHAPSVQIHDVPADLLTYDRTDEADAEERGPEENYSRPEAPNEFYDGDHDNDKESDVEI

Compound	IC50 [1] [nM]	IC50 [2] [nM]	IC50 [3] [nM]	IC50 [4] [nM]	IC50 [5] [nM]	IC50 [6] [nM]	IC50 [7] [nM]
CCCCCCCC(=O)SCC/C=C/[C@@H]1CC(=O)NCc2nc(co2)C2=N[C@@](C)(CS2)C(=O)N[C@@H](C(C)C)C(=O)O1	1900	950	2100	1100	120		
CC(C)[C@@H]1NC(=O)[C@]2(C)CSC(=N2)c2coc(n2)CNC(=O)C[C@@H](/C=C/CCS)OC1=O	7.2	4.4	20	98	6200	1200	960
CC(C)[C@@H]1NC(=O)[C@]2(C)CSC(=N2)c2coc(n2)CNC(=O)C[C@@H](/C=C/CCSSCC/C=C/[C@@H]2CC(=O)NCc3nc(co3)C3=N[C@@](C)(CS3)C(=O)N[C@@H](C(C)C)C(=O)O2)OC1=O	550	150	1300	50	910		
